Literature values in PMC10458458, “Characterization of Anticancer Effects of the Analogs of DJ4, a Novel Selective Inhibitor of ROCK and MRCK Kinases” (Pharmaceuticals, 2023).

Experiments:
astrocytes = tested on: astrocytes; set-up: method as in PMID 22929997; settings: 10 µM; cited from earlier work
HeLa cells = tested on: HeLa cells; set-up: method as in PMID 10779382; settings: >100 µM; cited from earlier work

C[C@@H](N)[C@H]1CC[C@H](C(=O)Nc2ccncc2)CC1 [Compound Y27632, Y27632]
effect on proliferation and cell cycle (astrocytes): promoted proliferation and progression of the cell cycle
effect on cytokinesis (HeLa cells): impaired cytokinesis
